# Results published in patent US20050033056A1, “Hydroxylated indole derivatives and uses thereof” (priority 2001, published 2005).
# How the values were obtained:
# CYP2E1 = biological target: T1, CYP2E1 (Homo sapiens, UniProt P05181); experiment: CYP inhibition in HLM: chlorzoxazone 6-hydroxylation; assay type: in vitro ADME; conditions: 10 or 50 μM
# T1 construct: tissue Gentest Corp. (Woburn, Mass.); host or cells: pooled human liver microsomes
# Method: The incubations were carried out in test tubes (12.0×75 mm). The incubation mixtures (250 μL) contained 0.5 mg of HLM protein, 50 (CYP1A2 and CYP2E1) or 25 (CYP2C9, CYP2C19, CYP2D6 and CYP3A4) pmol of recombinant human CYPs, Compound 1 (10 or 50 μM), probe substrate (R—, S-warfarin, chlorzoxazone, S-mephenyloin, or bufuralol) at different concentrations, and 0.5 mg of NADPH in 50 mM Tris buffer containing 15 mM MgCl2 (pH 7.4). Compound 1 was added to the reaction mixture 5 minutes prior to the addition of the probe substrate. […]
# The quantification was based on the calibration curves, and the quality control (QC) samples were applied to ensure the quality of the experiments. […]
# 2. […] 6-hydroxychlorzoxazone was monitored by UV at 280 nm.
# Data were acquired and analyzed by ChemStation (Version 6.03, Hewlett Packard, Waldbronn, Germany) for 6-, 7-, and 10-hydroxywarfarin and 6-hydroxychlorzoxazone, and MacQuan (Version 1.6, PE Biosystem, Foster City, Calif.) for 1′-hydroxybufuralol and 4′-hydroxymephenytoin. Quantification was based on peak area ratios of metabolites over the respective IS against the respective concentration of the metabolites. […] The metabolic rates were determined using Excel (Microsoft Office 97, Microsoft Corporation, Redmond, Wash.) or SigmaPlot (Version 6.00, SPSS Inc. Chicago, Ill.). […]
# CYP1A1/2 = experiment: CYP induction in primary human hepatocytes, Western immunoblotting: CYP1A1/2; assay type: cell-based; conditions: 10 or 50 μM for 72 hours; hepatocytes from three donors
# Method: Upon receiving a primary culture of human hepatocytes in 6-well plates, the culture medium containing streptomycin/penicillin was refreshed (2 ml/well). […] Compound 1 stock solution was added to the culture medium at a 1:400 ratio (v/v). The culture medium and testing compounds were replenished every 24 hours.
# At the end of the treatment, the cells were harvested into 1 mL of phosphate-buffered saline (PBS) after washing twice. The cells were precipitated by centrifugation, and were resuspended in PBS (approximately 50 μL). The sample preparation, after mixing with […] of Laemmli buffer (62.5 mM Tris-HCl containing 2% SDS, 25% glycerol, and 0.01% bromophenol, pH 6.8) and being rocked for 2-4 hours, was mixed with 10 μL of 2-mercaptoethanol, and heated at 90° C. for 10 minutes before electrophoresis.
# Proteins were resolved in a 12% SDS-PAGE gel using a mini gel apparatus at a constant voltage ([…]) for 70-80 minutes, and transferred onto a polyvinylidene difluoride (PVDF) membrane using a membrane-transferring unit at a constant voltage ([…]) for 60 minutes. The membrane was blocked by 5% non-fat dried milk (NFDM) blotting buffer (PBS containing 0.05% Tween 20) at 4° C. overnight. […] CYP proteins were detected by […] using an X-ray developer.
# T1 sequence (P05181 whole entry): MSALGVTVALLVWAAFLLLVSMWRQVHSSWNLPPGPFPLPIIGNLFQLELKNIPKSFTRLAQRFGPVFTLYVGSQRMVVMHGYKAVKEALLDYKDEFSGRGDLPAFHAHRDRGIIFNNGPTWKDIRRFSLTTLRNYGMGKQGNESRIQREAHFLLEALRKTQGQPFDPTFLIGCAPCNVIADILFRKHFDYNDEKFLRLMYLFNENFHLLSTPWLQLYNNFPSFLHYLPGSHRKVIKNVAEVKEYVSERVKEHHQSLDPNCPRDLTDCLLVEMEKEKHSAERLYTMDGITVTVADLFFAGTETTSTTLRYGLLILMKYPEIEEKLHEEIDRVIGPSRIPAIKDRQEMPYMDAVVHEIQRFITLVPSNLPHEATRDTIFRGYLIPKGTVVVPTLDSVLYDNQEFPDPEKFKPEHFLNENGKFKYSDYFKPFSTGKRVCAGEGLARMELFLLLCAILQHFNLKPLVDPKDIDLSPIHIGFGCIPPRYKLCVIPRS
smiles,measurement,setting,value
"CNC(=O)Cc1ccc2ccn(C3CCN(CCc4ccccc4F)CC3)c2c1 [Compound 1, N-methyl-[1-[1-(2-fluorophenethyl)piperidine-4-yl]-1H-indol-6-yl] acetamide]",inhibitory effect on CYP2E1 activity (in words),CYP2E1,no inhibitory effect
same,expression of CYP1A1/2 (Western immunoblotting),CYP1A1/2,did not increase
